Experimental data reported in ChEMBL document CHEMBL5380793, “Structure-Activity Relationship of Novel Pyrimidine Derivatives with Potent Inhibitory Activities against Mycobacterium tuberculosis” (J Med Chem, 2023).
Converted amounts (≈) assume the structure as drawn.

Legend:
Staphylococcus aureus = assay: Antibacterial activity against methicillin-resistant Staphylococcus aureus assessed as inhibition of bacterial growth; assay type: functional
[1] = Toxicity in BALB/c mouse assessed as mouse death at 800 mg/kg, po measured for 2 weeks; assay type: organism-based; details: in vivo, 336 h
[2] = test system: Mycobacterium tuberculosis; assay: Antibacterial activity against Mycobacterium tuberculosis H37Rv assessed as inhibition of bacterial growth incubated for 6 days by microplate alamar blue assay; assay type: functional; details: 144 h, time 6 day
[3] = test system: Mycobacterium tuberculosis; assay: Antitubercular activity against autoluminescent Mycobacterium tuberculosis H37Ra infected in BALB/c mouse assessed as reduction in relative light unit at 300 mg/kg, po administered once daily by oral gavage for 5 days and measured every 2 days by luminometer based analysis; assay type: functional; details: time 5 day
[4] = biological target: T1, Serine/threonine-protein kinase PknB (Mycobacterium tuberculosis) (UniProt P9WI81); assay: Binding affinity to Mycobacterium tuberculosis PknB assessed as gibbs free energy at 600 uM by ITC analysis
T1 sequence (whole entry): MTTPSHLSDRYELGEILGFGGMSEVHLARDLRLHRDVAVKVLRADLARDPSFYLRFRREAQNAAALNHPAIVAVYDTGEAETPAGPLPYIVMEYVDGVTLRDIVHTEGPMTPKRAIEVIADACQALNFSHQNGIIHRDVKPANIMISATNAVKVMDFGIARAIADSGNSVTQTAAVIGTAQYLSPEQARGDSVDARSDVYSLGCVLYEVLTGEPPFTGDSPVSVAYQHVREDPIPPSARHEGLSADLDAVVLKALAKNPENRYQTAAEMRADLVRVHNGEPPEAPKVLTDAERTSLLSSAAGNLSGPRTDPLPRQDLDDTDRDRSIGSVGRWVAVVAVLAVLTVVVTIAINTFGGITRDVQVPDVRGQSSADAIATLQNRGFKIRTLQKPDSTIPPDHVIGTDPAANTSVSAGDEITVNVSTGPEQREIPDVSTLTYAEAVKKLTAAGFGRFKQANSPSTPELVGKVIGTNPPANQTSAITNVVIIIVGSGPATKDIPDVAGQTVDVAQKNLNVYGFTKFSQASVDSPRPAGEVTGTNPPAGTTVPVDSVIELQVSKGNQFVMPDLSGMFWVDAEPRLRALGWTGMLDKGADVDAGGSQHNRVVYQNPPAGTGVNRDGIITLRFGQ

[5] = Cmax in Sprague-Dawley rat at 15 mg/kg, po measured for 24 hrs by LC-MS analysis; assay type: ADME, organism-based; parameters: dose 15 mg/kg, time 24 hrs, route po; details: in vivo
[6] = Half life in Sprague-Dawley rat at 5 mg/kg, iv measured for 24 hrs by LC-MS analysis; assay type: ADME, organism-based; details: in vivo
[7] = biological target: T2, Dihydrofolate reductase (Mycobacterium tuberculosis) (UniProt P9WNX1); assay: Inhibition of Mycobacterium tuberculosis DHFR at 100 uM relative to control
T2 sequence (whole entry): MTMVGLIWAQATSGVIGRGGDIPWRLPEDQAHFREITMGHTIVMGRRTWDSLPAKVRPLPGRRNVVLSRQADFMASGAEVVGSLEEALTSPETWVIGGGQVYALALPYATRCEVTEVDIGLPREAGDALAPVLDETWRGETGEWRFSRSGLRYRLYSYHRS

[8] = Toxicity in BALB/c mouse assessed as body weight loss at 800 mg/kg, po measured for 2 weeks; assay type: organism-based; details: in vivo, 336 h
[9] = test system: Mycobacterium tuberculosis; assay: Antibacterial activity against Mycobacterium tuberculosis clinical isolate K16 assessed as inhibition of bacterial growth incubated for 6 days by microplate alamar blue assay; assay type: functional; details: K16, 144 h, time 6 day
[10] = Toxicity in BALB/c mouse assessed as histopathological changes in kidney at 800 mg/kg, po measured at 14 days by H and E staining based analysis; assay type: organism-based; details: in vivo, 336 h, time 14 day
[11] = Toxicity in BALB/c mouse assessed as reduction in LDH level at 800 mg/kg, po measured at 14 days; assay type: organism-based; details: in vivo, 336 h, time 14 day
[12] = AUC(0 to t) in Sprague-Dawley rat at 5 mg/kg, iv measured for 24 hrs by LC-MS analysis; assay type: ADME, organism-based; parameters: dose 5 mg/kg, time 24 hrs, route iv; details: in vivo
[13] = biological target: T3, Serine/threonine-protein kinase PknB (Mycobacterium tuberculosis, UniProt P9WI81); assay: Binding affinity to Mycobacterium tuberculosis PknB assessed as dissociation constant at 600 uM by ITC analysis
T3 sequence (P9WI81 whole entry): T1 sequence (whole entry)

[14] = biological target: T1, Serine/threonine-protein kinase PknB (Mycobacterium tuberculosis); assay: Binding affinity to Mycobacterium tuberculosis PknB assessed as thermal stability by measuring melting temperature at 100 uM incubated for 0.5 hrs by SYPRO orange dye based differential scanning fluorimetry analysis (reference value: 59 degreeC)
[15] = test system: Mycobacterium tuberculosis; assay: Antibacterial activity against Mycobacterium tuberculosis clinical isolate K5 assessed as inhibition of bacterial growth incubated for 6 days by microplate alamar blue assay; assay type: functional; details: K5, 144 h, time 6 day
[16] = biological target: T2, Dihydrofolate reductase (Mycobacterium tuberculosis); assay: Inhibition of Mycobacterium tuberculosis DHFR at 10 uM relative to control
Escherichia coli = assay: Antibacterial activity against Escherichia coli assessed as inhibition of bacterial growth; assay type: functional
[17] = Toxicity in BALB/c mouse assessed as increase in AST level at 800 mg/kg, po measured at 14 days; assay type: organism-based; details: in vivo, 336 h, time 14 day
[18] = biological target: T1, Serine/threonine-protein kinase PknB (Mycobacterium tuberculosis); assay: Binding affinity to Mycobacterium tuberculosis PknB assessed as thermal stability by measuring change in melting temperature at 100 uM incubated for 0.5 hrs by SYPRO orange dye based differential scanning fluorimetry analysis
[19] = test system: Mycolicibacterium smegmatis; assay: Antibacterial activity against Mycobacterium smegmatis assessed as inhibition of bacterial growth; assay type: functional
[20] = AUC(0 to t) in Sprague-Dawley rat at 15 mg/kg, po measured for 24 hrs by LC-MS analysis; assay type: ADME, organism-based; parameters: dose 15 mg/kg, time 24 hrs, route po; details: in vivo
[21] = Toxicity in BALB/c mouse assessed as reduction in ALP level at 800 mg/kg, po measured at 14 days; assay type: organism-based; details: in vivo, 336 h, time 14 day
[22] = Oral bioavailability in Sprague-Dawley rat at 15 mg/kg measured for 24 hrs by LC-MS analysis; assay type: ADME, organism-based; details: in vivo
[23] = Apparent clearance during terminal phase in Sprague-Dawley rat at 5 mg/kg, iv measured for 24 hrs by LC-MS analysis; assay type: ADME, organism-based; details: in vivo
[24] = Toxicity in BALB/c mouse assessed as increase in uric acid level at 800 mg/kg, po measured at 14 days; assay type: organism-based; details: in vivo, 336 h, time 14 day
[25] = Cytotoxicity against human HepG2 cells assessed as inhibition of cell growth incubated for 48 hrs by MTT assay; assay type: toxicity, cell-based
[26] = Tmax in Sprague-Dawley rat at 15 mg/kg, po measured for 24 hrs by LC-MS analysis; assay type: ADME, organism-based; details: in vivo
[27] = test system: Mycobacterium tuberculosis; assay: Antitubercular activity against marker free autoluminescent Mycobacterium tuberculosis H37Ra assessed as reduction in relative light unit measured once a day for 6 days; assay type: functional; details: 144 h, time 6 day
[28] = test system: Mycobacteroides abscessus; assay: Antibacterial activity against Mycobacterium abscessus assessed as inhibition of bacterial growth; assay type: functional
[29] = test system: Mycobacterium tuberculosis; assay: Antibacterial activity against Mycobacterium tuberculosis clinical isolate K12 assessed as inhibition of bacterial growth incubated for 6 days by microplate alamar blue assay; assay type: functional; details: K12, 144 h, time 6 day
[30] = Cmax in Sprague-Dawley rat at 5 mg/kg, iv measured for 24 hrs by LC-MS analysis; assay type: ADME, organism-based; parameters: time 24 hrs, dose 5 mg/kg, route iv; details: in vivo
[31] = test system: Mycobacterium tuberculosis; assay: Antibacterial activity against Mycobacterium tuberculosis clinical isolate K4 assessed as inhibition of bacterial growth incubated for 6 days by microplate alamar blue assay; assay type: functional; details: K4, 144 h, time 6 day

## Cc1cc(Nc2nc(-c3ccccc3)ncc2Cl)c(OC(C)C)cc1C1CCNCC1
Staphylococcus aureus
  MIC: 4 µg/mL (≈ 9.15 µM)
[1]
  Activity: Non-Toxic
[2]
  MIC: 0.5 µg/mL (≈ 1.14 µM)
[3]
  Activity: 0.5 log10RLU
[4]
  deltaG: -3.1 kcal/mol
[5]
  Cmax: 108 ng/mL
[6]
  half-life: 26.2 h
[7]
  inhibition: 7.1%
[8]
  Activity: Non-Toxic
[9]
  MIC: 1 µg/mL (≈ 2.29 µM)
[10]
  Activity: Toxic
[11]
  Activity: Toxic
[12]
  AUC(0-t) at 24 h: 1690 ng·h/mL
[13]
  Kd: 9.4 µM
[14]
  Tm: 54 °C
[15]
  MIC: 1 µg/mL (≈ 2.29 µM)
[16]
  inhibition: 4.5%
Escherichia coli
  MIC: > 16 µg/mL
[17]
  Activity: Toxic
[18]
  ΔTm: -5 °C
[19]
  MIC: 4 µg/mL (≈ 9.15 µM)
[20]
  AUC(0-t) at 24 h: 2080 ng·h/mL
[21]
  Activity: Toxic
[22]
  bioavailability: 40.7%
[23]
  CLz/F: 25 mL/min/kg
[24]
  Activity: Toxic
[25]
  IC50 at 48 h: 3.1 µM
[26]
  Tmax: > 24 h
[27]
  MIC: 0.5 µg/mL (≈ 1.14 µM)
[28]
  MIC: 4 µg/mL (≈ 9.15 µM)
[29]
  MIC: 0.5 µg/mL (≈ 1.14 µM)
[30]
  Cmax: 595 ng/mL
[31]
  MIC: 0.5 µg/mL (≈ 1.14 µM)
